# In patent US20230286973A1, “PROTEIN SECRETION INHIBITORS” (KEZAR LIFE SCIENCES, priority 2020, published 2023):
# Tests used:
# [1] = Liver Microsome Stability Assay (human); conditions: human liver microsomes, with NADPH, 1.0 uM compound
# Description: (§1) Stability of a compound was assessed in the presence of liver microsomes from various sources—mouse, rat, monkey and human liver microsomes. 1.0 uM compound, 0.4% DMSO in 0.1 M Potassium Phosphate with 1.0 mg/mL liver microsomes, were incubated at 37° C. with or without 1 mM NADPH. The samples were quenched at 0, and 30 minutes.
# [2] = test system: PD1-ss+10aa/Gaussia Luciferase; assay: Dox-Induced PD1-ss-Gluc Assay; format: cell-based; conditions: 24 hr Dox induction; 293FRT/TO cells; read-out: 24 hr Dox Inducible PD1ssGluc 293FRT/TO: Mean IC50
# Summary of the method: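 Flp-In 293 T-REx cells stably carrying a doxycycline-inducible Gaussia luciferase fused to the PD1 signal sequence plus 10 aa were plated the day before. Compound dilutions in DMSO/media containing doxycycline were then added and incubated at 37 °C, 5% CO2. Data for undefined stereochemistry refer to stereoisomer mixtures.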
# [3] = test system: HER3-ss+4aa/Gaussia Luciferase; assay: Dox-Induced Her3-ss-Gluc Assay; format: cell-based; conditions: 24 hr Dox induction; 293FRT/TO cells; read-out: 24 hr Dox Inducible Her3(ss + 4)Gluc 293FRT/TO: Mean IC50
# Summary of the method: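 Compounds were diluted in DMSO/media containing doxycycline. They were added to Flp-In 293 T-REx cells plated the previous day, then incubated at 37 °C under 5% CO2. These cells stably express, under T-REx control, Gaussia luciferase fused to the HER3 signal sequence plus 4 amino acids.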
# [4] = Liver Microsome Stability Assay (mouse); conditions: mouse liver microsomes, with NADPH, 1.0 uM compound
# Description: as §1
# [5] = test system: multiple myeloma cell line U266B1; assay: U266 Cell Viability Assay; format: cell-based, human; conditions: Homo sapiens, U-266, 48 h, U266B1 cells, Celltiter-Glo
# Summary of the method: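 CellTiter-Glo luminescence was read after a 48 h compound exposure (37 °C, 5% CO2) of human U266B1 myeloma cells grown in 10% FBS-supplemented RPMI 1640. Data for structures shown without defined stereochemistry refer to stereoisomer mixtures.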
# [6] = Liver Microsome Stability Assay (monkey); conditions: monkey liver microsomes, with NADPH, 1.0 uM compound
# Description: as §1
# [7] = Liver Microsome Stability Assay (rat); conditions: rat liver microsomes, with NADPH, 1.0 uM compound
# Description: as §1
# [8] = test system: TNFα-FL/Gaussia Luciferase; assay: Dox Induced TNFα-FL-Gluc Assay; format: cell-based; conditions: for IC50: 24 hr Dox induction, 293FRT/TO cells, read-out: 24 hr Dox Inducible TNFaFLGluc 293FRT/TO: Mean IC50; for 24 hr Dox Inducible TNFaFLGluc 293FRT/TO: TNF/PD1: ratio of TNFaFLGluc IC50 to PD1ssGluc IC50
# Summary of the method: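 Compound was added with doxycycline to cells plated a day earlier, incubating at 37° C under 5% CO2. The reporter line is 293 T-REx expressing a TNFα (1-233)–Gaussia luciferase fusion under tetracycline-regulated control.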
# [9] = test system: multiple myeloma cell line NCI-H929; assay: H929 Cell Viability Assay; format: cell-based, human; conditions: Homo sapiens, NCI-H929, 48 h, NCI-H929 cells, Celltiter-Glo
# Summary of the method: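 Luminescent CellTiter-Glo read-out of viability after a 48 h exposure (37° C, 5% CO2) of NCI-H929 myeloma cells to compound dilutions in RPMI 1640 plus 10% FBS. Data for structures drawn without stereochemistry refer to stereoisomer mixtures.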
# [10] = test system: IL-2-FL/Gaussia Luciferase; assay: Dox Induced IL2-FL-Gluc Assay; format: cell-based; conditions: for IC50: 24 hr Dox induction, 293FRT/TO cells, read-out: 24 hr Dox Inducible IL2FLGluc 293FRT/TO: Mean IC50; for 24 hr Dox Inducible IL2FLGluc 293FRT/TO: IL2/PD1: ratio of IL2FLGluc IC50 to PD1ssGluc IC50
# Summary of the method: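 Compounds in DMSO/medium with doxycycline were applied to a 293 T-REx stable line expressing an IL-2 (aa 1-153)–Gaussia luciferase fusion under tetracycline-regulated control, cells seeded one day earlier; incubation at 37 °C, 5% CO2. Structures drawn without stereochemistry were tested as stereoisomer mixtures.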
Liver Microsome Stability (Multiple Species): Human - % Remaining after 30 min w/NADPH [1] [%],IC50 [2] [µM],IC50 [3] [µM],Liver Microsome Stability (Multiple Species): Mouse - % Remaining after 30 min w/NADPH [4] [%],EC50 [5] [µM],Liver Microsome Stability (Multiple Species): Monkey - % Remaining after 30 min w/NADPH [6] [%],Liver Microsome Stability (Multiple Species): Rat - % Remaining after 30 min w/NADPH [7] [%],IC50 [8] [µM],EC50 [9] [µM],IC50 [10] [µM],Structure (SMILES),24 hr Dox Inducible TNFaFLGluc 293FRT/TO: TNF/PD1 [8],24 hr Dox Inducible IL2FLGluc 293FRT/TO: IL2/PD1 [10]
0.28,0.0244,12.4,2.14,18.4,5.89,1.67,2.31,15.4,> 19.7,"Cc1c(/C=C/c2csc(NC(=O)c3cccn3Cc3ccncc3)n2)ncn1C(C)C [Compound B58, (E)-N-(4-(2-(1-isopropyl-5-methyl-1H-imidazol-4-yl)vinyl)thiazol-2-yl)-1-(pyridin-4-ylmethyl)-1H-pyrrole-2-carboxamide]",952,>810
0.32,0.467,2.1,0.64,11.9,0.17,0.55,13.9,7.91,6.09,"Cc1cccc(/C=C/c2csc(NC(=O)c3cccn3Cc3ccnc(F)c3)n2)n1 [Compound B59, (E)-1-((2-fluoropyridin-4-yl)methyl)-N-(4-(2-(6-methylpyridin-2-yl)vinyl)thiazol-2-yl)-1H-pyrrole-2-carboxamide]",29.7,13
0.33,0.14,0.725,0.45,15.8,2.65,1.16,> 25,12.8,1.75,"O=C(Nc1nc(/C=C/c2ccc3c(n2)CCCC3)cs1)c1cccn1Cc1ccnc(F)c1 [Compound B60, (E)-1-((2-fluoropyridin-4-yl)methyl)-N-(4-(2-(5,6,7,8-tetrahydroquinolin-2-yl)vinyl)thiazol-2-yl)-1H-pyrrole-2-carboxamide]",>179,13
0.96,> 25,> 25,9.41,> 25,0.5,12.3,> 25,> 25,> 25,O=C(Nc1nc(/C=C/c2cccc(=O)[nH]2)cs1)c1cccn1Cc1ccnc(F)c1 [Compound B61],<=>1.00,<=>1.0
0.2,0.321,> 25,11.5,> 25,2.64,2.51,> 25,> 24.3,> 25,"O=C(Nc1nc(/C=C/c2cn3c(n2)CCC3)cs1)c1cccn1Cc1ccnc(F)c1 [Compound B62, (E)-N-(4-(2-(6,7-dihydro-5H-pyrrolo[1,2-a]imidazol-2-yl)vinyl)thiazol-2-yl)-1-((2-fluoropyridin-4-yl)methyl)-1H-pyrrole-2-carboxamide]",>77.9,>78
6.56,> 20.9,> 25,0.49,> 25,0.09,1.14,> 25,> 25,> 25,"CC(C)n1cnc(/C=C/c2csc(NC(=O)c3cccn3Cc3cccnc3)n2)c1 [Compound B63, (E)-N-(4-(2-(1-isopropyl-1H-imidazol-4-yl)vinyl)thiazol-2-yl)-1-(pyridin-3-ylmethyl)-1H-pyrrole-2-carboxamide]",<=>1.20,<=>1.2
0.37,0.0206,0.784,0.29,> 22.2,0.12,0.46,18.4,15.7,1.72,"CC(C)c1ccc(/C=C/c2csc(NC(=O)c3cccn3Cc3ccnc(F)c3)n2)nc1 [Compound B64, (E)-1-((2-fluoropyridin-4-yl)methyl)-N-(4-(2-(5-isopropylpyridin-2-yl)vinyl)thiazol-2-yl)-1H-pyrrole-2-carboxamide]",894,84
0.18,0.12,> 25,7.82,> 25,0.08,4.75,> 25,24.5,> 25,"CCn1cnc(/C=C/c2csc(NC(=O)c3cccn3Cc3ccnc(F)c3)n2)c1 [Compound B65, (E)-N-(4-(2-(1-ethyl-1H-imidazol-4-yl)vinyl)thiazol-2-yl)-1-((2-fluoropyridin-4-yl)methyl)-1H-pyrrole-2-carboxamide]",>208,>210
0.09,15.5,> 25,0.11,> 25,0.35,0.18,> 25,13.4,> 25,"CC(C)c1ccc(/C=C/c2csc(NC(=O)c3cccn3Cc3cccnc3)n2)nc1 [Compound B66, (E)-N-(4-(2-(5-isopropylpyridin-2-yl)vinyl)thiazol-2-yl)-1-(pyridin-3-ylmethyl)-1H-pyrrole-2-carboxamide]",>1.61,>1.6
0.16,5.37,18.5,2.2,19.7,0.13,1.32,> 25,21,19.1,"CC(C)c1nc(/C=C/c2csc(NC(=O)c3cccn3Cc3ccnc(F)c3)n2)cn1C [Compound B67, (E)-1-((2-fluoropyridin-4-yl)methyl)-N-(4-(2-(2-isopropyl-1-methyl-1H-imidazol-4-yl)vinyl)thiazol-2-yl)-1H-pyrrole-2-carboxamide]",>4.66,3.6
